{"source": "patent US20200093786A1", "about": "“S[…] OF CANNABIS FOR TREATING MULTIPLE MYELOMA” (One World Cannabis LTD, priority 2014, published 2020)", "key": {"[1]": {"tested_on": "CD138+ cells from myeloma patients", "assay": "XTT cell viability and combination index, CD138+ cells from bone marrow aspirate of MM patients (Example 8)", "format": "cell-based, human", "conditions": "for survival of MM cells (in words): CD138+ patient cells, each of the patients tested, concentration dependent manner, FIG. 4; for IC50: Homo sapiens, read-out: dose that caused 50% of MM cell death (IC50); for sensitivity of the patient's cells / more effective combination (in words): CD138+ cells, 48 hours", "description": "This conversion only occurs in viable cells.\nPeripheral blood samples from MM patients and healthy donors are processed by Ficoll density gradient centrifugation to isolate peripheral blood mononuclear cells (PBMCs). […] For co-culture assays MM cells are stained with CFSE, cultured in the presence of HS-5 human stroma cell line, treated with the drugs and their viability is evaluated by counterstained with PI and cell viability evaluation by flow cytometer analysis.\nXTT assay was performed to assess cell viability. Each treatment was performed in triplicate and presented as mean±SE.\nCombination Index (CI) value <1, =1, >1 indicates synergism, additive effect, and antagonism, respectively. Pat 1, 2, 3 indicate the patient number."}, "[2]": {"tested_on": "RPMI-LR5 (LEN-resistant cells)", "assay": "XTT cell viability, LEN-resistant MM cells (Example 9)", "format": "cell-based", "conditions": "RPMI-LR5, 48 hours, concentration dependent manner, FIG. 5", "description": "(§1) RPMI-MR20, RPMI-LR5 and RPMI-Dox40 were cultured during 48 hours with CBD (FIG. 5A), THC (FIG. 5B), CBD:THC 1:1 (FIG. 5C), CBD:THC 1:5 (FIG. 5D) and CBD:THC 5:1 (FIG. 5E). XTT assay was performed to assess cell viability."}, "[3]": {"tested_on": "RPMI-Dox40 (DOXO-resistant cells)", "assay": "XTT cell viability, DOXO-resistant MM cells (Example 9)", "format": "cell-based", "conditions": "RPMI-Dox40, 48 hours, concentration dependent manner, FIG. 5", "description": "as §1"}, "[4]": {"tested_on": "RPMI-MR20 (mitoxantrone-resistant cells)", "assay": "XTT cell viability, mitoxantrone-resistant MM cells (Example 9)", "format": "cell-based", "conditions": "RPMI-MR20, 48 hours, concentration dependent manner, FIG. 5", "description": "as §1"}, "MM cells": {"tested_on": "MM cells", "conditions": "CBD by itself or in synergy with bortezomib; reference [8]; cited from earlier work"}}, "note": "Like-named read-outs stand apart in the source and are kept apart here.", "data": [{"compound": "CCCCCc1cc(O)c2c(c1)OC(C)(C)[C@@H]1CCC(C)=C[C@@H]21", "note": "[THC, Tetrahydrocannabinol]", "values": [{"measurement": "survival of MM cells (in words)", "setting": "[1]", "value": "decreased survival"}, {"measurement": "IC50", "setting": "[1]; 48 h", "value": "6 to 35", "unit": "µM"}, {"measurement": "sensitivity of the patient's cells / more effective combination (in words)", "setting": "[1]; Patient 3 (VCD)", "value": "less sensitive to THC than to CBD"}, {"measurement": "survival of MM cells (in words)", "setting": "[2]", "value": "decreased survival"}, {"measurement": "survival of MM cells (in words)", "setting": "[3]", "value": "decreased survival"}, {"measurement": "survival of MM cells (in words)", "setting": "[4]", "value": "decreased survival"}]}, {"compound": "C=C(C)[C@@H]1CCC(C)=C[C@H]1c1c(O)cc(CCCCC)cc1O", "note": "[CBD, Cannabidiol]", "values": [{"measurement": "survival of MM cells (in words)", "setting": "[1]", "value": "decreased survival"}, {"measurement": "IC50", "setting": "[1]; CD138+ cells of patients 1 to 3, 48 hours, FIG. 4D", "value": "6.7 to 12.5", "unit": "µM"}, {"measurement": "sensitivity of the patient's cells / more effective combination (in words)", "setting": "[1]; Patient 1 (SM, no treatment)", "value": "less sensitive to CBD than to THC"}, {"measurement": "sensitivity of the patient's cells / more effective combination (in words)", "setting": "[1]; Patient 2 (VTD)", "value": "slightly more sensitive to CBD than to THC"}, {"measurement": "survival of MM cells (in words)", "setting": "[2]", "value": "decreased survival"}, {"measurement": "survival of MM cells (in words)", "setting": "[3]", "value": "decreased survival"}, {"measurement": "survival of MM cells (in words)", "setting": "[4]", "value": "decreased survival"}, {"measurement": "growth of MM cells (in words)", "setting": "MM cells", "value": "strongly inhibited growth"}]}]}
